In article PMC5224920, “Assessing the mechanism and therapeutic potential of modulators of the human Mediator complex-associated protein kinases” (eLife, 2016):

Tested on: 12 single or co-culture in vitro tissue models of primary cells
Test: Culture/co-culture cell model panel, extracellular biomarkers (DiscoveRx); as to CCL2/MCP-1: reference of the scale not given here; as to CD141/Thrombomodulin: reference of the scale not given here; as to CD142/Tissue Factor: reference of the scale not given here; as to CD38: reference of the scale not given here; as to CD40: reference of the scale not given here; as to CD69: reference of the scale not given here; as to CXCL8/IL-8: reference of the scale not given here; as to CXCL9/MIG: reference of the scale not given here; as to IL-1alpha: reference of the scale not given here; as to M-CSF: reference of the scale not given here; as to PBMC Cytotoxicity: reference of the scale not given here; as to SRB: reference of the scale not given here; as to sPGE2: reference of the scale not given here; as to sTNF-alpha: reference of the scale not given here
Format: cell-based, human
[1] = HDF3CGF stimulated fibroblasts, 1.00E3 nM
[2] = HDF3CGF stimulated fibroblasts, 1.00E4 nM
[3] = HPNo Huvec+PBMC unstimulated, 1.00E0 nM
[4] = HPNo Huvec+PBMC unstimulated, 1.00E1 nM
[5] = HPNo Huvec+PBMC unstimulated, 1.00E2 nM
[6] = HPNo Huvec+PBMC unstimulated, 1.00E3 nM
[7] = HPNo Huvec+PBMC unstimulated, 1.00E4 nM

Compound: Cn1ncc2cc(-c3cnc(N)c(Cl)c3N3CCC4(CCNC4=O)CC3)ccc21 [CMPD 3]
- EGFR [1]: -0.071
- M-CSF [1]: -0.083
- MMP-1 [1]: 0.021
- PAI-I [1]: -0.046
- Proliferation_72hr [1]: -0.287
- SRB [1]: -0.024
- TIMP-1 [1]: -0.058
- TIMP-2 [1]: 0.170
- CCL2/MCP-1 [2]: -0.120
- CD54/ICAM-1 [2]: -0.048
- CD106/VCAM-1 [2]: 0.030
- CXCL8/IL-8 [2]: -0.092
- CXCL9/MIG [2]: -0.077
- CXCL10/IP-10 [2]: 0.009
- CXCL11/I-TAC [2]: -0.045
- Collagen I [2]: 0.097
- Collagen III [2]: 0.0018
- EGFR [2]: 0.023
- M-CSF [2]: -0.150
- MMP-1 [2]: 0.056
- PAI-I [2]: -0.210
- Proliferation_72hr [2]: -0.515
- SRB [2]: -0.209
- TIMP-1 [2]: -0.045
- TIMP-2 [2]: 0.276
- CCL2/MCP-1 [3]: 0.009
- CD38 [3]: 0.004
- CD40 [3]: -0.028
- CD106/VCAM-1 [3]: 0.042
- CD141/Thrombomodulin [3]: 0.010
- CD142/Tissue Factor [3]: 0.089
- CCL2/MCP-1 [4]: 0.017
- CD38 [4]: -0.049
- CD40 [4]: -0.059
- CD106/VCAM-1 [4]: 0.134
- CD141/Thrombomodulin [4]: -0.016
- CD142/Tissue Factor [4]: 0.039
- CCL2/MCP-1 [5]: 0.001
- CD38 [5]: -0.011
- CD40 [5]: -0.067
- CD106/VCAM-1 [5]: 0.206
- CD141/Thrombomodulin [5]: 0.008
- CD142/Tissue Factor [5]: 0.039
- CCL2/MCP-1 [6]: -0.049
- CD38 [6]: -0.041
- CD40 [6]: -0.024
- CD106/VCAM-1 [6]: 0.098
- CD141/Thrombomodulin [6]: 0.007
- CD142/Tissue Factor [6]: 0.007
- CCL2/MCP-1 [7]: -0.004
- CD38 [7]: -0.070
- CD40 [7]: -0.022
- CD106/VCAM-1 [7]: 0.069
- CD141/Thrombomodulin [7]: 0.032
- CD142/Tissue Factor [7]: -0.024
- CD69 (HPNo, 1.00E0 nM): -0.011
- CXCL8/IL-8 (HPNo, 1.00E0 nM): 0.034
- CXCL9/MIG (HPNo, 1.00E0 nM): 0.060
- M-CSF (HPNo, 1.00E0 nM): 0.037
- SRB (HPNo, 1.00E0 nM): -0.058
- sPGE2 (HPNo, 1.00E0 nM): 0.025
- sTNF-alpha (HPNo, 1.00E0 nM): 0.138
- CD69 (HPNo, 1.00E1 nM): -0.011
- CXCL8/IL-8 (HPNo, 1.00E1 nM): 0.00458
- CXCL9/MIG (HPNo, 1.00E1 nM): 0.092
- M-CSF (HPNo, 1.00E1 nM): 0.011
- SRB (HPNo, 1.00E1 nM): -0.00131
- sPGE2 (HPNo, 1.00E1 nM): 0.022
- sTNF-alpha (HPNo, 1.00E1 nM): 0.068
- CD69 (HPNo, 1.00E2 nM): 0.017
- CXCL8/IL-8 (HPNo, 1.00E2 nM): -0.00647
- CXCL9/MIG (HPNo, 1.00E2 nM): 0.045
- M-CSF (HPNo, 1.00E2 nM): -0.043
- SRB (HPNo, 1.00E2 nM): 0.006
- sPGE2 (HPNo, 1.00E2 nM): 0.139
- sTNF-alpha (HPNo, 1.00E2 nM): 0.492
- CD69 (HPNo, 1.00E3 nM): -0.017
- CXCL8/IL-8 (HPNo, 1.00E3 nM): -0.012
- CXCL9/MIG (HPNo, 1.00E3 nM): 0.014
- M-CSF (HPNo, 1.00E3 nM): -0.056
- SRB (HPNo, 1.00E3 nM): 0.008
- sPGE2 (HPNo, 1.00E3 nM): 0.056
- sTNF-alpha (HPNo, 1.00E3 nM): -0.00633
- CD69 (HPNo, 1.00E4 nM): 0.004
- CXCL8/IL-8 (HPNo, 1.00E4 nM): -0.002
- CXCL9/MIG (HPNo, 1.00E4 nM): -0.052
- M-CSF (HPNo, 1.00E4 nM): -0.079
- SRB (HPNo, 1.00E4 nM): -0.058
- sPGE2 (HPNo, 1.00E4 nM): 0.016
- sTNF-alpha (HPNo, 1.00E4 nM): 0.025
- CCL2/MCP-1 (LPS Huvec+PBMC, 1.00E0 nM): 0.009
- CD40 (LPS Huvec+PBMC, 1.00E0 nM): -0.011
- CD69 (LPS Huvec+PBMC, 1.00E0 nM): 0.028
- CD106/VCAM-1 (LPS Huvec+PBMC, 1.00E0 nM): 0.028
- CD141/Thrombomodulin (LPS Huvec+PBMC, 1.00E0 nM): 0.019
- CD142/Tissue Factor (LPS Huvec+PBMC, 1.00E0 nM): 0.057
- CXCL8/IL-8 (LPS Huvec+PBMC, 1.00E0 nM): 0.020
- IL-1alpha (LPS Huvec+PBMC, 1.00E0 nM): 0.064
- M-CSF (LPS Huvec+PBMC, 1.00E0 nM): 0.051
- SRB (LPS Huvec+PBMC, 1.00E0 nM): -0.018
- sPGE2 (LPS Huvec+PBMC, 1.00E0 nM): 0.033
- sTNF-alpha (LPS Huvec+PBMC, 1.00E0 nM): 0.017
- CCL2/MCP-1 (LPS Huvec+PBMC, 1.00E1 nM): -0.00212
- CD40 (LPS Huvec+PBMC, 1.00E1 nM): -0.078
- CD69 (LPS Huvec+PBMC, 1.00E1 nM): -0.00157
- CD106/VCAM-1 (LPS Huvec+PBMC, 1.00E1 nM): 0.056
- CD141/Thrombomodulin (LPS Huvec+PBMC, 1.00E1 nM): 0.042
- CD142/Tissue Factor (LPS Huvec+PBMC, 1.00E1 nM): 0.050
- CXCL8/IL-8 (LPS Huvec+PBMC, 1.00E1 nM): -0.028
- IL-1alpha (LPS Huvec+PBMC, 1.00E1 nM): -0.012
- M-CSF (LPS Huvec+PBMC, 1.00E1 nM): -0.018
- SRB (LPS Huvec+PBMC, 1.00E1 nM): -0.053
- sPGE2 (LPS Huvec+PBMC, 1.00E1 nM): 0.128
- sTNF-alpha (LPS Huvec+PBMC, 1.00E1 nM): 0.024
- CCL2/MCP-1 (LPS Huvec+PBMC, 1.00E2 nM): -0.069
- CD40 (LPS Huvec+PBMC, 1.00E2 nM): -0.092
- CD69 (LPS Huvec+PBMC, 1.00E2 nM): 0.048
- CD106/VCAM-1 (LPS Huvec+PBMC, 1.00E2 nM): 0.047
- CD141/Thrombomodulin (LPS Huvec+PBMC, 1.00E2 nM): 0.046
- CD142/Tissue Factor (LPS Huvec+PBMC, 1.00E2 nM): 0.071
- CXCL8/IL-8 (LPS Huvec+PBMC, 1.00E2 nM): -0.091
- IL-1alpha (LPS Huvec+PBMC, 1.00E2 nM): -0.007
- M-CSF (LPS Huvec+PBMC, 1.00E2 nM): -0.020
- SRB (LPS Huvec+PBMC, 1.00E2 nM): -0.076
- sPGE2 (LPS Huvec+PBMC, 1.00E2 nM): 0.096
- sTNF-alpha (LPS Huvec+PBMC, 1.00E2 nM): 0.028
- CCL2/MCP-1 (LPS Huvec+PBMC, 1.00E3 nM): -0.112
- CD40 (LPS Huvec+PBMC, 1.00E3 nM): -0.089
- CD69 (LPS Huvec+PBMC, 1.00E3 nM): 0.015
- CD106/VCAM-1 (LPS Huvec+PBMC, 1.00E3 nM): 0.022
- CD141/Thrombomodulin (LPS Huvec+PBMC, 1.00E3 nM): 0.052
- CD142/Tissue Factor (LPS Huvec+PBMC, 1.00E3 nM): 0.071
- CXCL8/IL-8 (LPS Huvec+PBMC, 1.00E3 nM): -0.169
- IL-1alpha (LPS Huvec+PBMC, 1.00E3 nM): -0.064
- M-CSF (LPS Huvec+PBMC, 1.00E3 nM): -0.008
- SRB (LPS Huvec+PBMC, 1.00E3 nM): -0.082
- sPGE2 (LPS Huvec+PBMC, 1.00E3 nM): 0.040
- sTNF-alpha (LPS Huvec+PBMC, 1.00E3 nM): -0.030
- CCL2/MCP-1 (LPS Huvec+PBMC, 1.00E4 nM): -0.187
- CD40 (LPS Huvec+PBMC, 1.00E4 nM): -0.133
- CD69 (LPS Huvec+PBMC, 1.00E4 nM): -0.043
- CD106/VCAM-1 (LPS Huvec+PBMC, 1.00E4 nM): 0.00362
- CD141/Thrombomodulin (LPS Huvec+PBMC, 1.00E4 nM): 0.038
- CD142/Tissue Factor (LPS Huvec+PBMC, 1.00E4 nM): 0.121
- CXCL8/IL-8 (LPS Huvec+PBMC, 1.00E4 nM): -0.222
- IL-1alpha (LPS Huvec+PBMC, 1.00E4 nM): -0.226
- M-CSF (LPS Huvec+PBMC, 1.00E4 nM): -0.022
- SRB (LPS Huvec+PBMC, 1.00E4 nM): -0.142
- sPGE2 (LPS Huvec+PBMC, 1.00E4 nM): 0.008
- sTNF-alpha (LPS Huvec+PBMC, 1.00E4 nM): -0.328
- CCL2/MCP-1 (SAg, 1.00E0 nM): 0.030
- CD38 (SAg, 1.00E0 nM): 0.023
- CD40 (SAg, 1.00E0 nM): -0.041
- CD69 (SAg, 1.00E0 nM): 0.00162
- CXCL8/IL-8 (SAg, 1.00E0 nM): 0.064
- CXCL9/MIG (SAg, 1.00E0 nM): 0.013
- PBMC Cytotoxicity (SAg, 1.00E0 nM): 0.039
- Proliferation (SAg, 1.00E0 nM): 0.019
- SRB (SAg, 1.00E0 nM): -0.013
- CCL2/MCP-1 (SAg, 1.00E1 nM): -0.016
- CD38 (SAg, 1.00E1 nM): -0.043
- CD40 (SAg, 1.00E1 nM): -0.128
- CD69 (SAg, 1.00E1 nM): 0.037
- CXCL8/IL-8 (SAg, 1.00E1 nM): -0.047
- CXCL9/MIG (SAg, 1.00E1 nM): -0.015
- PBMC Cytotoxicity (SAg, 1.00E1 nM): 0.014
- Proliferation (SAg, 1.00E1 nM): 0.030
- SRB (SAg, 1.00E1 nM): -0.033
- CCL2/MCP-1 (SAg, 1.00E2 nM): -0.038
- CD38 (SAg, 1.00E2 nM): -0.050
- CD40 (SAg, 1.00E2 nM): -0.143
- CD69 (SAg, 1.00E2 nM): 0.053
- CXCL8/IL-8 (SAg, 1.00E2 nM): -0.167
- CXCL9/MIG (SAg, 1.00E2 nM): -0.040
- PBMC Cytotoxicity (SAg, 1.00E2 nM): 0.014
- Proliferation (SAg, 1.00E2 nM): 0.018
- SRB (SAg, 1.00E2 nM): -0.052
- CCL2/MCP-1 (SAg, 1.00E3 nM): -0.092
- CD38 (SAg, 1.00E3 nM): -0.050
- CD40 (SAg, 1.00E3 nM): -0.108
- CD69 (SAg, 1.00E3 nM): 0.059
- CXCL8/IL-8 (SAg, 1.00E3 nM): -0.271
- CXCL9/MIG (SAg, 1.00E3 nM): -0.072
- PBMC Cytotoxicity (SAg, 1.00E3 nM): -0.014
- Proliferation (SAg, 1.00E3 nM): 0.007
- SRB (SAg, 1.00E3 nM): -0.055
- CCL2/MCP-1 (SAg, 1.00E4 nM): -0.171
- CD38 (SAg, 1.00E4 nM): -0.109
- CD40 (SAg, 1.00E4 nM): -0.222
- CD69 (SAg, 1.00E4 nM): -0.076
- CXCL8/IL-8 (SAg, 1.00E4 nM): -0.221
- CXCL9/MIG (SAg, 1.00E4 nM): -0.086
- PBMC Cytotoxicity (SAg, 1.00E4 nM): -0.027
- Proliferation (SAg, 1.00E4 nM): -0.217
- SRB (SAg, 1.00E4 nM): -0.150
